Test results taken from patent US10668024B2, “Mesoporous silica nanoparticles for biomedical applications” (The Regents of the University of California, priority 2007, dated 2020).

Columns and labels:
PANC-1 cells [1] = assay: Apoptosis assay (propidium iodide/Hoechst 33342, DNA fragmentation, caspase-3 Western blot); format: cell-based, human; conditions: 24 hours
Description: Cell death was also examined using the propidium iodide and Hoechst 33342 double-staining method. The cells were stained with propidium iodide/Hoechst 33342 (1:1) for 5 minutes and then examined using fluorescence microscope. DNA fragmentation assay was also performed. PANC-1 cells were treated for 24 hours with: (1) 100 nM CPT in PBS, (2) 100 nM CPT loaded in FMSN (suspended in PBS), or (3) 64 μg/ml nonloaded FMSN in PBS, then washed twice with ice-cold PBS and collected by trypsinization. The cell pellets were resuspended in 500 μl of Tris-EDTA buffer (20 mM Tris-HCl [pH 8.0], 20 mM EDTA) containing 0.1% SDS and proteinase K (0.5 mg/ml) at 50° C. for 2 hours and then treated with RNase A (0.02 mg/ml) for 30 minutes at 37° C. DNA was extracted using phenol/chloroform and ethanol precipitation and was dissolved in distilled water, separated on a 2% agarose gel, and stained with ethidium bromide.
Proteins were separated by gel electrophoresis on a polyacrylamide gel containing sodium dodecyl sulfate (SDS), and then transferred to nitrocellulose membranes. The membranes were blocked with tris buffer saline (TBS) containing 5% (W/V) skim milk. […] Bands were detected with an ECL system (Amersham Pharmacia Biotech K.K., UK).

PANC-1 cells [2] = assay: Cell morphology analysis by light microscopy; conditions: PANC-1, paclitaxel dissolved in DMSO
PANC-1 cells [3] = assay: Fluorescence and confocal microscopy, Example 2; format: cell-based, human; conditions: suspension of CPT in PBS, 100 nM, 3 hours incubation
From the text: (§1) Human cancer cell lines, PANC-1, AsPC-1, Capan-1 (pancreatic), MKN45 (gastric), and SW480 (colon) were obtained from the American Type Culture Collection and were maintained in Dulbecco's modified Eagle's medium (DMEM) (GIBCO) or RPMI-1640 (Cellgro) supplemented with 10% fetal calf serum (Sigma), 2% L-glutamine, 1% penicillin, and 1% streptomycin stock solutions. The media were changed every 3 days, and the cells were passaged by trypsinization before confluence.
The fluorescence of the nanoparticles at 470 nm excitation wavelength was used to confirm the cellular uptake of FMSN. […] The cells were then monitored by fluorescence microscope with an excitation wavelength at 470 nm. To examine the location of FMSN within the cells, Acridine Orange (AO) (Sigma) and lysoSensor green DND-189 (Invitrogen) were used to monitor lysosomes and endosomes. Cells were cultured overnight on a Lab-Tek chamber slide system (Nalge Nunc International). After the cells were incubated with FMSN for 3 hours, they were washed with PBS and examined with confocal microscope (λex=470 nm) (Carl Zeiss LSM 310 Laser Scanning Confocal microscope). […] This property allows the use of fluorescence to study the distribution of CPT inside the cells. PANC-1 cells were incubated with CPT-loaded FMSN or CPT suspended in PBS (100 nM) for 3 hours, washed with PBS 3 times, and then examined by fluorescence microscope under UV.

PANC-1 cells [4] = assay: Cell death assay (WST-8), Example 2; format: cell-based, human
From the text: as §1

MKN-45 cells = assay: Cell death assay (WST-8), Example 2; format: cell-based, human
From the text: as §1

SW480 cells = assay: Cell death assay (WST-8), Example 2; format: cell-based, human
From the text: as §1

Capan-1 cells = assay: Cell death assay (WST-8), Example 2; format: cell-based, human
From the text: as §1

AsPc-1 cells = assay: Cell death assay (WST-8), Example 2; format: cell-based, human
From the text: as §1

PANC-1 cells [5] = assay: Confocal microscopy of FMSN uptake, Example 3; format: cell-based, human; conditions: 0.1% sodium azide, sucrose 0.45 M, bafilomycin A 0.05 μM, nocodazole 2 μg/ml, brefeldin A 5 μg/ml
Description: The fluorescence of FITC was used to monitor cellular uptake of FMSN. Cells were incubated with FMSN for 3 h at 37° C. under a 5% CO2 95% air atmosphere in an 8-chamber Lab-Tek chamber slide system with covers (Nalge Nunc International), washed with phosphate buffered saline (PBS) and examined with confocal microscopy (λex=470 nm) (Carl Zeiss LSM 310 Laser Scanning Confocal microscopy). To examine the distribution of FMSN within the cells, the same cells were then incubated with 6 μM of Acridine Orange (AO) (Sigma), which specifically stains lysosomes/endosomes to red (Canonico, P. G. and Bird, J. W. C. (1969), J. Cell Biol. 43, 367-371), for 1 h in DMEM without phenol red, washed with PBS, and examined by confocal microscopy again (λex=488 nm). The emission light was passed through a 560-nm short-pass dichroic mirror. The green emission was passed through a 530-nm bandpass filter, and the red emission was passed through a 600-nm longpass filter. Both emissions were simultaneously collected using two photomultiplier tubes.
To determine whether the uptake of FMSN into cancer cells was energy-dependent, the cells were incubated with FMSN under different metabolic conditions. The uptake assay was performed in the presence of sodium azide, sucrose, bafilomycin A, nocodazole or brefeldin A. Cells were seeded on 8-chamber Lab-Tek chamber slides for 24 h, then preincubated at 4° C. with either 0.1% sodium azide, or sucrose (0.45 M), or bafilomycin A (0.05 μM), or nocodazole (2 μg/ml), or brefeldin A (5 μg/ml) for 10 min. The FMSN suspension in PBS was then added and the cells were incubated for additional 3 h at 37° C. The uptake was stopped by washing the cells three times with cold PBS, and then the cells were fixed with 4% paraformaldehyde in PBS for 1 h at room temperature and washed with PBS. The chambers of slides were removed, and each slide was mounted with fluorescence-free glycerol-based mounting medium (Fluoromount-G; Southern Biotechnology Associates, USA) by cover glasses. Cells were analyzed by confocal microscopy (Carl Zeiss LSM 310 Laser Scanning Confocal microscopy).

cancer cells = conditions: relative to CPT; cited from earlier work

## C[S+](C)[O-] [DMSO, dimethyl sulfoxide]
PANC-1 cells [1]; PANC-1, 10% DMSO
  mechanism of cell death (propidium iodide/Hoechst 33342 double staining): induced necrosis

## CC(=O)O[C@H]1C(=O)[C@@]2(C)[C@H]([C@H](OC(=O)c3ccccc3)[C@]3(O)C[C@H](OC(=O)[C@H](O)[C@@H](NC(=O)c4ccccc4)c4ccccc4)C(C)=C1C3(C)C)[C@]1(OC(C)=O)CO[C@@H]1C[C@@H]2O [paclitaxel]
PANC-1 cells [2]
  morphologic change of the cells: Cells became round and smaller

## CC[C@@]1(O)C(=O)OCc2c1cc1n(c2=O)Cc2cc3ccccc3nc2-1 [CPT, camptothecin]
PANC-1 cells [3]
  CPT fluorescence in cells: remained nonfluorescent
PANC-1 cells [1]; PANC-1, CPT dissolved in DMSO, compared with CPT-loaded FMSN
  mechanism of cell death (propidium iodide/Hoechst 33342 double staining): similar
PANC-1 cells [4]; PANC-1, CPT dissolved in DMSO, 24 h treatment + 48 h
  cytotoxicity / growth inhibition: growth inhibition of different human cancer cells was observed
PANC-1 cells [4]; PANC-1, CPT suspended in PBS, even at high concentrations
  cytotoxicity: did not show any cytotoxicity
MKN-45 cells; MKN-45, CPT dissolved in DMSO, 24 h treatment + 48 h
  cytotoxicity / growth inhibition: growth inhibition of different human cancer cells was observed
MKN-45 cells; MKN-45, CPT suspended in PBS, even at high concentrations
  cytotoxicity: did not show any cytotoxicity
SW480 cells; SW480, CPT dissolved in DMSO, 24 h treatment + 48 h
  cytotoxicity / growth inhibition: growth inhibition of different human cancer cells was observed
SW480 cells; SW480, CPT suspended in PBS, even at high concentrations
  cytotoxicity: did not show any cytotoxicity
Capan-1 cells; Capan-1, CPT dissolved in DMSO, 24 h treatment + 48 h
  cytotoxicity / growth inhibition: growth inhibition of different human cancer cells was observed
Capan-1 cells; Capan-1, CPT suspended in PBS, even at high concentrations
  cytotoxicity: did not show any cytotoxicity
AsPc-1 cells; AsPc-1, CPT dissolved in DMSO, 24 h treatment + 48 h
  cytotoxicity / growth inhibition: growth inhibition of different human cancer cells was observed
AsPc-1 cells; AsPc-1, CPT suspended in PBS, even at high concentrations
  cytotoxicity: did not show any cytotoxicity

## OC[C@H]1O[C@@](CO)(O[C@H]2O[C@H](CO)[C@@H](O)[C@H](O)[C@H]2O)[C@@H](O)[C@@H]1O [sucrose]
PANC-1 cells [5]
  effect of preincubation with inhibitor on uptake of FMSN: suppressed the uptake

## CO/C1=C\C(C)=C\[C@@H](C)[C@@H](O)[C@@H](C)C/C(C)=C/C=C/[C@H](OC)[C@@H]([C@@H](C)[C@@H](O)[C@H](C)[C@@]2(O)C[C@@H](O)[C@H](C)[C@@H](C(C)C)O2)OC1=O [bafilomycin A]
PANC-1 cells [5]
  effect of preincubation with inhibitor on uptake of FMSN: completely suppressed the uptake

## CCc1c2c(nc3ccc(OC(=O)N4CCC(N5CCCCC5)CC4)cc13)-c1cc3c(c(=O)n1C2)COC(=O)[C@]3(O)CC [irinotecan]
Cancer cells
  cytotoxicity to cancer cells compared to CPT: 10%

## C[C@H]1CCC/C=C/[C@@H]2C[C@H](O)C[C@H]2[C@H](O)/C=C/C(=O)O1 [brefeldin A]
PANC-1 cells [5]
  effect of preincubation with inhibitor on uptake of FMSN: did not show any effect

## COC(=O)Nc1nc2ccc(C(=O)c3cccs3)cc2[nH]1 [nocodazole]
PANC-1 cells [5]
  effect of preincubation with inhibitor on uptake of FMSN: significantly disrupted the uptake
